Assay [1] has as its system Interleukin-2 (IL-2) production on spleen cells in the MLR. As to the kind of experiment: Measurement of interleukin-2 production in MLR (mixed lymphocyte reaction). In kind it is cell-based, mice. As to conditions: 48 h culture, ELISA. As to the method:
Measurement of Interleukin-2 Production in MLR (Mixed Lymphocyte Reaction)
Measurement of interleukin-2 production in MLR was performed according to the described procedure (Gaveriaux-Ruff et al., J. Pharmacol. Exper. Ther. 298, 1193, 2001).
Splenocytes from mice were cultured with allogeneic stimulators (mitomycin treated BALB/c spleen cells).
(An ELISA detects its analyte on a solid surface through an enzyme-linked reagent.)

Assay [2] concerns the target calcineurin (Homo sapiens, UniProt Q08209). As to the kind of experiment: Calcineurin inhibition assay. In kind it is biochemical. As to conditions: compound at a concentration of 20 μM. As to the method: Calcineurin Inhibition Assays
Calcineurin inhibition assay was performed according to a described procedure (R. Baumgrass et al., J. Biol. Chem. 276, 47914, 2001).
Calcineurin inhibition was measured in a concentration range of 1-50 μM of the test compound at optimal Ca^2+ and calmoduline concentrations. The calcineurin/compound mixtures were equilibrated in the assay buffer (40 mM Tris-HCl, pH 7.5, 100 mM NaCl, 6 mM MgCl2, 0.5 mM ditiothreitol, 1 mM CaCl2, 0.1 mg/ml bovine serum albumin) at 22° C. for 30 min. Calcineurin activity was referenced to the assay lacking the test compounds. The data were computed with the SigmaPlot program.

The structures appear in SMILES notation. Structures can show the parent of a compound that is named as a salt.

Sequence of calcineurin (P63098 2-170, other chains not shown): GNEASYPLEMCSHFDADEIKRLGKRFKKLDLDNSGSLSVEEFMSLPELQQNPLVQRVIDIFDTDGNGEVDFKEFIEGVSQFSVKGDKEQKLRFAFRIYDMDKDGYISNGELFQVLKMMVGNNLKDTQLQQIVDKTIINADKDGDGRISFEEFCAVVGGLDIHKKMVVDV

For `CCOC12Cc3c([nH]c4ccccc34)C3(C)Oc4c(O)ccc5c4C31CCN(CC1CC1)C2C5` (stereo not drawn) [HS 378, 17-(Cyclopropylmethyl)-6,7-dehydro-4,5α-epoxy-14ethoxy-3-hydroxy-5-methyl-6,7-2′,3′-indolomorphinan Hydrochloride], the IL-2 worked out at 49 ± 7 pg/mL in assay [1] (2 μM compound), 31 ± 3 pg/mL in assay [1] (10 μM compound) and 22 ± 2 pg/mL in assay [1] (20 μM compound).

As to `Cl.Oc1ccc2c3c1OC1c4[nH]c5ccccc5c4CC4(OCc5ccccc5-c5ccccc5)C(C2)N(CC2CC2)CCC314` (stereo not drawn) [HS 882, 17-(Cyclopropylmethyl)-6,7-didehydro-4,5α-epoxy-14β-[(2-phenylbenzyl)oxy]indolo[2′,3′:6,7]morphinan-3-ol Hydrochloride], in assay [2], the “Calcineurin activity (% of control)” value was 49 % of control.

As to `CC(C)(C)c1ccc(COC23Cc4c([nH]c5ccccc45)C4Oc5c(O)ccc6c5C42CCN(CC2CC2)C3C6)cc1.Cl` (stereo not drawn) [HS 884, 14β-[(4-tert.-Butylbenzyl)oxy]-17-(cyclopropylmethyl)-6,7-didehydro-4,5α-epoxyindolo[2′,3′:6,7]morphinan-3-ol Hydrochloride], the “Calcineurin activity (% of control)” value in assay [2] is 65 % of control.

Regarding `Oc1ccc2c3c1OC1c4[nH]c5ccccc5c4CC4(OCCCc5ccccc5)C(C2)N(CC2CC2)CCC314` (stereo not drawn) [HS 894, 17-(Cyclopropylmethyl)-6,7-didehydro-4,5α-epoxy-14β-[(3-phenylpropyl)oxy]indolo[2′,3′:6,7]morphinan-3-ol], the “Calcineurin activity (% of control)” value in assay [2] is on record as 30 % of control.

For `Oc1ccc2c3c1O[C@H]1c4[nH]c5ccccc5c4C[C@@]4(O)[C@@H](C2)N(CC2CC2)CC[C@]314` [Naltrindole, reference compound], the IL-2 worked out at 66 ± 18 pg/mL in assay [1] (3 μM compound), 29 ± 6 pg/mL in assay [1] (10 μM compound) and 19 ± 5 pg/mL in assay [1] (30 μM compound).

The values above are taken from US20070167474A1, “Use of opioid receptor antagonist compounds for the prevention and/or treatment of diseases associated with the target calcineurin” (priority 2004, published 2007).
